From US20120270770A1, “Anti-angiogenic peptides and their uses” (priority 2010, published 2012)

Experiments:
[1] = test system: Feline Immunodeficiency virus FIV; test: Treatment of a lion infected with FIV; type: in vivo; conditions: weekly 70 mg I.M injections
Excerpt: Nasty is a male lion in North Carolina Zoological Park. He was diagnosed to suffer Feline Immunodeficiency virus FIV. FIV attacks the immune system of cats, much like the human immunodeficiency virus (HIV) attacks the immune system of human beings. FIV infects many cell types in its host, including CD4+ and CD8+ T lymphocytes, B lymphocytes, and macrophages. FIV eventually leads to debilitation of the immune system in its feline hosts by the infection and exhaustion of T-helper (CD4+) cells.
Nasty was treated weekly with 70 mg I.M injections of JC15-10N. […] It can be seen that starting of peptide treatment stabilized the CD4+ cell counts.

[2] = test system: angiogenesis in Matrigel deposits imbibed with fibroblast growth factor 1 (FGF1); test: Matrigel deposit angiogenesis assay (FGF1-loaded Matrigel implanted in mice, histology score); type: in vivo
Excerpt: Matrigel deposits were surgically implanted on both sides of 4 mice per treatment yielding a possible 8 samples per treatment. Matrigel is a polymeric substance that appears to be relatively inert in animals and it can serve as a matrix that allows experimentation in vivo on many different difficult-to-study-processes. Prior to implantation, the Matrigel was allowed to imbibe fibroblast growth factor 1 (FGF1). This protein is a powerful inducer of angiogenesis and its presence guarantees that sufficient activity will be observed within the allotted time period of the experiment. Therefore, any inhibition of angiogenesis is likely to be a real phenomenon as the experiment has been set to heavily favor the angiogenic process. Angiogenesis occurs by day 14 and beginning Day 1 (Day 0=day of implantation), mice were injected IP daily with 20 μg of peptide in 100 μl of normal saline. The animals were sacrificed on Day 14, and each Matrigel deposit divided longitudinally and fixed in 10% buffered formalin. One of the halves of each Matrigel deposit was then sectioned. Read-out for this experiment was via histology, with semi-quantitative/qualitative counting of migration of cells and their subsequent assembly of lumenal structures within the Matrigel. This method allows us to observe the full physiologic spectrum of effects, and was useful in delineating trends. […] In FIG. 13, A represents what a section of a Matrigel gel deposit looks like under the microscope soon after surgical implantation. The sample in B is derived from the control at the conclusion of the experiment. Intense activity is present with numerous cells attaching to the surface of the Matrigel. Cells begin to penetrate the deposit and organize into discrete structures that coalesce to form the beginning of tubes twisting and branching in many directions. These venules eventually connect with the system carrying blood and it is possible to see red cells and lymphocytes within them. This process is called “arborization”, derived from the fact that the angiogenic process most closely resembles the growth of roots and branches of trees. All but two of the peptide treatments looked, more or less, like B (all the peptides of Table 1 were tested). In C, a typical sample from the peptide C-1 treatment is shown. […] Consequently, there were far fewer cells and cellular structures inside of the Matrigel. […] There were large regions of Matrigel that had no visibly associated structures and few single cells, including on the periphery, while other regions had some limited activity.
This system ranks each sample using a 0 to 4 plus (+) scale. Thus, B in FIG. 13 would yield a score of +++ while no + sign would yield a value of 0, as in A in FIG. 13. In Table 3 the data is modified to a numerical form and plotted averages are shown.

[3] = test system: Stage IV pancreatic cancer; test: Treatment of a patient with Stage IV pancreatic cancer; type: in vivo, human; conditions: one patient
Description: A diabetic since 12/01 was diagnosed with Stage IV pancreatic cancer in May 2002 with metastatic diseases in their liver. Median survival time of patients with Stage IV pancreatic cancer is 4.5 months. Median survival time of patients with Stage IV pancreatic cancer when treated with gemcitabine is 4.8 months. The longest anyone lived on gemcitabine treatment has been 19 months.
The patient of this case started JC15-10N peptide treatment on August 2002. The patient was given 0.5 mg/kg peptide sub-cutaneously. The patient weighted 128 lbs. and therefore they received 29 mg/injection per week. […] After receiving the peptide for more than 19 months, the patient was doing fine. The patient passed away from unrelated causes on July 2004.

[4] = test system: arthritis (calcification of joints); test: Treatment of a patient with arthritis; type: in vivo, human; conditions: one patient, subcutaneous 10 mg once a week for one month, then once a month
Description: A patient with arthritis was treated by subcutaneous injection of 10 mg once a week for one month and then once a month for maintenance doses. A visible indication of arthritis is calcification of joints.

[5] = 0 to 4 plus scale, 20 μg peptide IP daily, Day 14 histology

In the case of FAKKFAKKFK [JC15-10N], the “absolute CD4+ cell counts” value [1] is reported as “stabilized”, the “absolute CD8+ cell counts” value [1] is reported as “prevented the decrease” and the “weight of the lion” value [1] is reported as “began to rise immediately”. For the same sequence, the “angiogenic activity score, Sample 1” value [2, 5] was 1, the “angiogenic activity score, Sample 2” value [2, 5] was 2 and the “angiogenic activity score, Sample 3” value [2, 5] was 2. The “angiogenic activity score, Sample 4” value [2, 5] was 3, the “angiogenic activity score, Sample 5” value [2, 5] was 1 and the “angiogenic activity score, Sample 6” value [2, 5] was 2. The “angiogenic activity score, Sample 7” value [2, 5] was 2, the “% Diff.” value ([2]; difference of mean score from control (2.50)) was −25.71% and the “angiogenic / anti-angiogenic activity in Matrigel deposit (in words)” value ([2]; histology, 20 μg peptide IP daily, Day 14) was “possesses anti-angiogenic activity”. The “angiogenic activity score, Mean” value ([2]; mean of samples, control mean 2.50) was 1.86, the “need for diabetic medication (indicating primary tumor regressing)” value ([3]; 0.5 mg/kg sub-cutaneously per week) was “required no more diabetic medication” and the “metastatic disease in the liver” value ([3]; 0.5 mg/kg sub-cutaneously, 29 mg/injection per week) was “diminished significantly”. For the same sequence, the “time on peptide with the patient doing fine” value ([3]; Stage IV pancreatic cancer, 0.5 mg/kg sub-cutaneously per week) was “more than 19 months” and the “calcification of the ankle joints (x-ray)” value [4] was “disappeared”.
